US12258345B1, “Pyrrolo[3,2-c]isoquinoline-2,3-dione compounds as CK2 inhibitors” (KING FAISAL UNIVERSITY, priority 2023, dated 2025)

Tests used:
[1] = molecular target: T1, recombinant human CK2 (RRBB-holoenzyme) (Homo sapiens, UniProt P68400); experiment: CK2 Kinase Assay (33P-ATP, substrate peptide RRRDDDSDDD); assay type: biochemical; conditions: final ATP concentration 15 μM, 10 min at 30° C.; read-out: protein kinase CK2 activity IC50
T1 construct: purchased Millipore
Procedure: CK2 Kinase Assay was conducted using the previously described protocol (Pierre F. et al; J. Med. Chem. 2011, 54, 635-654). The tested compounds in aqueous solution were added at a volume of 10 μL to a reaction mixture comprising 10 μL of assay dilution buffer (ADB; 20 mM MOPS, pH 7.2, 25 mM β-glycerol phosphate, 5 mM EGTA, 1 mM sodium orthovanadate, and 1 mM dithiothreitol), 10 μL of substrate peptide (RRRDDDSDDD, dissolved in ADB at a concentration of 1 mM), 10 μL of recombinant human CK2 (RRBB-holoenzyme, 25 ng dissolved in ADB; Millipore). Reactions were initiated by the addition of 10 μL of ATP solution (90% 75 mMMgCl2, 75 μM ATP (final ATP concentration: 15 μM) dissolved in ADB; 10% [γ-33P] ATP (stock 1 mCi/100 μL; 3000 Ci/mmol (Perkin-Elmer) and maintained for 10 min at 30° C. The reactions were quenched with 100 μL of 0.75% phosphoric acid and then transferred to and filtered through a phosphor cellulose filter plate (Millipore). After washing each well five times with 0.75% phosphoric acid, the plate was dried under vacuum for 5 min and, following the addition of 15 μL of scintillation fluid to each well, the residual radioactivity was measured using a Wallac […] counter. The IC50 values were derived from eight concentrations of test inhibitors.

HCT116 (colon) = experiment: MTT in vitro cytotoxic activity assay, HCT116; assay type: cell-based; conditions: Homo sapiens, HCT-116, 96 h incubation, read-out: Cytotoxicity activity, HCT116 (colon)
Procedure: (§1) Compounds 1-16 were screened for their in vitro cytotoxic behavior using a 3-(4,5-dimethyl-thiazol-2-yl)-2,5-diphenyltetrazolium bromide (MTT) assay against selected cancer human cell lines consisting of PC3 (prostate), HCT116 (colon), A375 (melanoma), H1299 (lung), MIAPaCa-2 (pancreas), HL60 (leukemia), MCF7 (breast), MDA-MB-231 (breast) (T. Mosmann, J. Immunol. Meth., 1983, 65, 55-63). The cells were cultured at 37° C. in RMPI1640 medium supplemented with 10% fetal bovine serum, 50 IU/mL penicillin, and 50 μg/mL streptomycin in a 5% CO2 incubator. All cells were sub-cultured 3 times/week by trypsinisation. Viable cells were seeded and allowed to adhere for 12 h before a test drug was added in 96-well plates at an initial density of 1.0×10^5 cells/mL. Tumor cell lines were separately exposed to various concentrations of the tested compounds followed by incubation at a temperature of 37° C. during 96 h inside a medium of fresh RMPI 1640. Cells were subsequently incubated at 37° C. using MTT at 0.5 mg/mL for 4 hours. After removal of supernatant, formazan crystals were dissolved in isopropanol and the optical density was measured at 570 nm. CX-4945 was used as a positive control.

[2] = system: various human cancer cell lines; experiment: MTT in vitro cytotoxic activity assay, panel of human cancer cell lines; assay type: cell-based; conditions: MCF7, MDA-MB-231, H1299, PC3, HCT116, A375, MIAPaCa-2, HL60
Procedure: as §1

A375 (melanoma) = experiment: MTT in vitro cytotoxic activity assay, A375; assay type: cell-based; conditions: Homo sapiens, A-375, 96 h incubation, read-out: Cytotoxicity activity, A375 (melanoma)
Procedure: as §1

HL60 (leukemia) = experiment: MTT in vitro cytotoxic activity assay, HL60; assay type: cell-based; conditions: Homo sapiens, HL-60, 96 h incubation, read-out: Cytotoxicity activity, HL60 (leukemia)
Procedure: as §1

MCF7 (breast) = experiment: MTT in vitro cytotoxic activity assay, MCF7; assay type: cell-based; conditions: Homo sapiens, 96 h incubation, read-out: Cytotoxicity activity, MCF7 (breast)
Procedure: as §1

MDA-MB-231 (breast) = experiment: MTT in vitro cytotoxic activity assay, MDA-MB-231; assay type: cell-based; conditions: Homo sapiens, 96 h incubation, read-out: Cytotoxicity activity, MDA-MB-231 (breast)
Procedure: as §1

PC3 (prostate) = experiment: MTT in vitro cytotoxic activity assay, PC3; assay type: cell-based; conditions: Homo sapiens, 96 h incubation, read-out: Cytotoxicity activity, PC3 (prostate)
Procedure: as §1

H1299 (lung) = experiment: MTT in vitro cytotoxic activity assay, H1299; assay type: cell-based; conditions: Homo sapiens, NCI-H1299, 96 h incubation, read-out: Cytotoxicity activity, H1299 (lung)
Procedure: as §1

MIAPaCa-2 (pancreas) = experiment: MTT in vitro cytotoxic activity assay, MIAPaCa-2; assay type: cell-based; conditions: Homo sapiens, MIA PaCa-2, 96 h incubation, read-out: Cytotoxicity activity, MIAPaCa-2 (pancreas)
Procedure: as §1

T1 sequence (P68400 whole entry): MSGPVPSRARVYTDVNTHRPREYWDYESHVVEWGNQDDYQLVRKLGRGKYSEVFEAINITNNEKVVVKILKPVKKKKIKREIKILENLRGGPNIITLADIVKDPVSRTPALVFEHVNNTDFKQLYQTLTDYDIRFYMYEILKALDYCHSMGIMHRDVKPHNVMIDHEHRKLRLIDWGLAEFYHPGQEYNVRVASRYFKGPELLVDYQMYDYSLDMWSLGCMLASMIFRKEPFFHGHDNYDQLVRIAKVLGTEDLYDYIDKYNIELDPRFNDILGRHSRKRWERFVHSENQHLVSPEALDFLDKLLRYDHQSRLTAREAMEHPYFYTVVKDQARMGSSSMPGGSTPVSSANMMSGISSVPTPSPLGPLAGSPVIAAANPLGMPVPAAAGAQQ
T1 sequence (P67870 whole entry partner): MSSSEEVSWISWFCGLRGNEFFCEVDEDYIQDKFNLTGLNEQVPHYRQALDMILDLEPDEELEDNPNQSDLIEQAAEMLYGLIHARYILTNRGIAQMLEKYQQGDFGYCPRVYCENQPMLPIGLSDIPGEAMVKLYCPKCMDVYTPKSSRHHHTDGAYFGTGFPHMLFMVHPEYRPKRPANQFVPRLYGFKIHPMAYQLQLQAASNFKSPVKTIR

IC50 [1]: 38 nM
Structure (SMILES): O=C1Nc2c(nc(Nc3cccc(Cl)c3)c3cc(C(=O)O)ccc23)C1=O [Compound 1, 5-((3-chlorophenyl)amino)-2,3-dioxo-2,3-dihydro-1H-pyrrolo[3,2-c]isoquinoline-7-carboxylic acid]
IC50 (HCT116 (colon)): 1500 nM
in vitro anti-proliferative / anticancer activity against human cancer cell lines (in words) [2]: promising in vitro anti-proliferative activity
IC50 (A375 (melanoma)): 3100 nM
IC50 (HL60 (leukemia)): 3900 nM
IC50 (MCF7 (breast)): 5400 nM
IC50 (MDA-MB-231 (breast)): 3800 nM
IC50 (PC3 (prostate)): 1100 nM
IC50 (H1299 (lung)): 1700 nM
IC50 (MIAPaCa-2 (pancreas)): 1100 nM
